# From US20100267561A1, “HERBICIDAL PYRIDAZINONE DERIVATIVES” (priority 2007, published 2010)
# What was measured:
# Assay in all cases: Test E pre-/postemergence plant response
# Type in all cases: in vivo
# [1] = system: quackgrass (Elytrigia repens); details: scale 0 to 100
# Method in brief: (§1)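 Visual rating 0–100 vs untreated controls (0 = no effect, 100 = complete control) after 14–21 d greenhouse. Pre- and postemergence treatments; compound in non-phytotoxic solvent mix + surfactant. Post plants 2–18 cm, 1- to 4-leaf stage.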
# [2] = system: black mustard (Brassica nigra); details: scale 0 to 100
# Method in brief: as §1
# [3] = system: annual bluegrass (Poa annua); details: scale 0 to 100
# Method in brief: as §1
# [4] = system: green foxtail (Setaria viridis); details: scale 0 to 100
# Method in brief: as §1
# [5] = system: barnyardgrass (Echinochloa crus-galli); details: scale 0 to 100
# Method in brief: as §1
# [6] = system: Italian ryegrass (Lolium multiflorum); details: scale 0 to 100
# Method in brief: as §1
# [7] = system: goosegrass (Eleusine indica); details: scale 0 to 100
# Method in brief: as §1
# [8] = system: common groundsel (Senecio vulgaris); details: Postemergence, scale 0 to 100
# Method in brief: as §1
# [9] = system: dallisgrass (Paspalum dilatatum); details: scale 0 to 100
# Method in brief: as §1
# [10] = system: guineagrass (Panicum maximum); details: scale 0 to 100
# Method in brief: as §1
# [11] = system: common purslane (Portulaca oleracea); details: scale 0 to 100
# Method in brief: as §1
# [12] = system: pitted morningglory (Ipomoea lacunosa); details: scale 0 to 100
# Method in brief: as §1
# [13] = system: common mallow (Malva sylvestris); details: Postemergence, scale 0 to 100
# Method in brief: as §1
compound,measurement,setting,value
CCc1cc(-c2ccc(Cl)cc2)nn1-c1c(O)cnn(C)c1=O [Compound 21],"Plant response rating, Quackgrass","[1]; 16 g ai/ha, Preemergence",50
same,"Plant response rating, Quackgrass","[1]; 31 g ai/ha, Preemergence",90
same,"Plant response rating, Quackgrass","[1]; 62 g ai/ha, Preemergence",95
same,"Plant response rating, Quackgrass","[1]; Postemergence, 8 g ai/ha",20
same,"Plant response rating, Quackgrass","[1]; Postemergence, 16 g ai/ha",35
same,"Plant response rating, Quackgrass","[1]; Postemergence, 31 g ai/ha",40
same,"Plant response rating, Quackgrass","[1]; Postemergence, 62 g ai/ha",80
same,"Plant response rating, Mustard, Black","[2]; 8 g ai/ha, Preemergence",0
same,"Plant response rating, Mustard, Black","[2]; 16 g ai/ha, Preemergence",0
same,"Plant response rating, Mustard, Black","[2]; 31 g ai/ha, Preemergence",0
same,"Plant response rating, Mustard, Black","[2]; 62 g ai/ha, Preemergence",0
same,"Plant response rating, Mustard, Black","[2]; Postemergence, 8 g ai/ha",0
same,"Plant response rating, Mustard, Black","[2]; Postemergence, 16 g ai/ha",0
same,"Plant response rating, Mustard, Black","[2]; Postemergence, 31 g ai/ha",0
same,"Plant response rating, Mustard, Black","[2]; Postemergence, 62 g ai/ha",0
same,"Plant response rating, Bluegrass","[3]; 8 g ai/ha, Preemergence",0
same,"Plant response rating, Bluegrass","[3]; 16 g ai/ha, Preemergence",0
same,"Plant response rating, Bluegrass","[3]; 31 g ai/ha, Preemergence",0
same,"Plant response rating, Bluegrass","[3]; 62 g ai/ha, Preemergence",0
same,"Plant response rating, Bluegrass","[3]; Postemergence, 8 g ai/ha",0
same,"Plant response rating, Bluegrass","[3]; Postemergence, 16 g ai/ha",0
same,"Plant response rating, Bluegrass","[3]; Postemergence, 31 g ai/ha",10
same,"Plant response rating, Bluegrass","[3]; Postemergence, 62 g ai/ha",15
same,"Plant response rating, Foxtail, Green","[4]; 8 g ai/ha, Preemergence",75
same,"Plant response rating, Foxtail, Green","[4]; 16 g ai/ha, Preemergence",100
same,"Plant response rating, Foxtail, Green","[4]; 31 g ai/ha, Preemergence",100
same,"Plant response rating, Foxtail, Green","[4]; 62 g ai/ha, Preemergence",100
same,"Plant response rating, Foxtail, Green","[4]; Postemergence, 8 g ai/ha",65
same,"Plant response rating, Foxtail, Green","[4]; Postemergence, 16 g ai/ha",75
same,"Plant response rating, Foxtail, Green","[4]; Postemergence, 31 g ai/ha",95
same,"Plant response rating, Foxtail, Green","[4]; Postemergence, 62 g ai/ha",100
same,"Plant response rating, Barnyardgrass","[5]; 8 g ai/ha, Preemergence",95
same,"Plant response rating, Barnyardgrass","[5]; 16 g ai/ha, Preemergence",100
same,"Plant response rating, Barnyardgrass","[5]; 31 g ai/ha, Preemergence",100
same,"Plant response rating, Barnyardgrass","[5]; 62 g ai/ha, Preemergence",100
same,"Plant response rating, Barnyardgrass","[5]; Postemergence, 8 g ai/ha",100
same,"Plant response rating, Barnyardgrass","[5]; Postemergence, 16 g ai/ha",100
same,"Plant response rating, Barnyardgrass","[5]; Postemergence, 31 g ai/ha",100
same,"Plant response rating, Barnyardgrass","[5]; Postemergence, 62 g ai/ha",100
same,"Plant response rating, Ryegrass, Italian","[6]; 16 g ai/ha, Preemergence",100
same,"Plant response rating, Ryegrass, Italian","[6]; 31 g ai/ha, Preemergence",100
same,"Plant response rating, Ryegrass, Italian","[6]; 62 g ai/ha, Preemergence",100
same,"Plant response rating, Ryegrass, Italian","[6]; Postemergence, 8 g ai/ha",80
same,"Plant response rating, Ryegrass, Italian","[6]; Postemergence, 16 g ai/ha",98
same,"Plant response rating, Ryegrass, Italian","[6]; Postemergence, 31 g ai/ha",100
same,"Plant response rating, Ryegrass, Italian","[6]; Postemergence, 62 g ai/ha",100
same,"Plant response rating, Goosegrass","[7]; 8 g ai/ha, Preemergence",95
same,"Plant response rating, Goosegrass","[7]; 16 g ai/ha, Preemergence",100
same,"Plant response rating, Goosegrass","[7]; 31 g ai/ha, Preemergence",100
same,"Plant response rating, Goosegrass","[7]; 62 g ai/ha, Preemergence",100
same,"Plant response rating, Goosegrass","[7]; Postemergence, 8 g ai/ha",75
same,"Plant response rating, Goosegrass","[7]; Postemergence, 16 g ai/ha",80
same,"Plant response rating, Goosegrass","[7]; Postemergence, 31 g ai/ha",90
same,"Plant response rating, Goosegrass","[7]; Postemergence, 62 g ai/ha",98
same,"Plant response rating, Groundsel",[8]; 8 g ai/ha,0
same,"Plant response rating, Groundsel",[8]; 62 g ai/ha,0
same,"Plant response rating, Dallisgrass","[9]; 8 g ai/ha, Preemergence",80
same,"Plant response rating, Dallisgrass","[9]; 16 g ai/ha, Preemergence",100
same,"Plant response rating, Dallisgrass","[9]; 31 g ai/ha, Preemergence",100
same,"Plant response rating, Dallisgrass","[9]; 62 g ai/ha, Preemergence",100
same,"Plant response rating, Dallisgrass","[9]; Postemergence, 8 g ai/ha",75
same,"Plant response rating, Dallisgrass","[9]; Postemergence, 16 g ai/ha",80
same,"Plant response rating, Dallisgrass","[9]; Postemergence, 31 g ai/ha",85
same,"Plant response rating, Dallisgrass","[9]; Postemergence, 62 g ai/ha",98
same,"Plant response rating, Guineagrass","[10]; 16 g ai/ha, Preemergence",100
same,"Plant response rating, Guineagrass","[10]; 31 g ai/ha, Preemergence",100
same,"Plant response rating, Guineagrass","[10]; 62 g ai/ha, Preemergence",100
same,"Plant response rating, Guineagrass","[10]; Postemergence, 8 g ai/ha",95
same,"Plant response rating, Guineagrass","[10]; Postemergence, 16 g ai/ha",98
same,"Plant response rating, Guineagrass","[10]; Postemergence, 31 g ai/ha",100
same,"Plant response rating, Guineagrass","[10]; Postemergence, 62 g ai/ha",100
same,"Plant response rating, Purslane","[11]; 16 g ai/ha, Preemergence",0
same,"Plant response rating, Purslane","[11]; 31 g ai/ha, Preemergence",0
same,"Plant response rating, Purslane","[11]; 62 g ai/ha, Preemergence",0
same,"Plant response rating, Purslane","[11]; Postemergence, 8 g ai/ha",0
same,"Plant response rating, Purslane","[11]; Postemergence, 16 g ai/ha",0
same,"Plant response rating, Purslane","[11]; Postemergence, 31 g ai/ha",0
same,"Plant response rating, Purslane","[11]; Postemergence, 62 g ai/ha",0
same,"Plant response rating, Morningglory","[12]; 16 g ai/ha, Preemergence",0
same,"Plant response rating, Morningglory","[12]; 31 g ai/ha, Preemergence",0
same,"Plant response rating, Morningglory","[12]; 62 g ai/ha, Preemergence",0
same,"Plant response rating, Morningglory","[12]; Postemergence, 8 g ai/ha",0
same,"Plant response rating, Morningglory","[12]; Postemergence, 16 g ai/ha",0
same,"Plant response rating, Morningglory","[12]; Postemergence, 31 g ai/ha",0
same,"Plant response rating, Morningglory","[12]; Postemergence, 62 g ai/ha",0
same,"Plant response rating, Mallow",[13]; 8 g ai/ha,0
same,"Plant response rating, Mallow",[13]; 16 g ai/ha,0
same,"Plant response rating, Mallow",[13]; 31 g ai/ha,0
same,"Plant response rating, Mallow",[13]; 62 g ai/ha,0
Cc1cc(-c2ccc(Cl)cc2)nn1-c1c(OC(=O)c2cccc(Cl)c2)cnn(C)c1=O [Compound 32],"Plant response rating, Quackgrass","[1]; Postemergence, 8 g ai/ha",0
same,"Plant response rating, Quackgrass","[1]; Postemergence, 16 g ai/ha",0
same,"Plant response rating, Quackgrass","[1]; Postemergence, 31 g ai/ha",0
same,"Plant response rating, Quackgrass","[1]; Postemergence, 62 g ai/ha",0
same,"Plant response rating, Mustard, Black","[2]; Postemergence, 8 g ai/ha",0
same,"Plant response rating, Mustard, Black","[2]; Postemergence, 16 g ai/ha",0
same,"Plant response rating, Mustard, Black","[2]; Postemergence, 31 g ai/ha",0
same,"Plant response rating, Mustard, Black","[2]; Postemergence, 62 g ai/ha",0
same,"Plant response rating, Bluegrass","[3]; Postemergence, 8 g ai/ha",0
same,"Plant response rating, Bluegrass","[3]; Postemergence, 16 g ai/ha",0
same,"Plant response rating, Bluegrass","[3]; Postemergence, 31 g ai/ha",0
same,"Plant response rating, Bluegrass","[3]; Postemergence, 62 g ai/ha",0
same,"Plant response rating, Foxtail, Green","[4]; Postemergence, 8 g ai/ha",40
same,"Plant response rating, Foxtail, Green","[4]; Postemergence, 16 g ai/ha",60
same,"Plant response rating, Foxtail, Green","[4]; Postemergence, 31 g ai/ha",85
same,"Plant response rating, Foxtail, Green","[4]; Postemergence, 62 g ai/ha",90
same,"Plant response rating, Barnyardgrass","[5]; Postemergence, 8 g ai/ha",98
same,"Plant response rating, Barnyardgrass","[5]; Postemergence, 16 g ai/ha",98
same,"Plant response rating, Barnyardgrass","[5]; Postemergence, 31 g ai/ha",100
same,"Plant response rating, Barnyardgrass","[5]; Postemergence, 62 g ai/ha",100
same,"Plant response rating, Ryegrass, Italian","[6]; Postemergence, 8 g ai/ha",75
same,"Plant response rating, Ryegrass, Italian","[6]; Postemergence, 16 g ai/ha",95
same,"Plant response rating, Ryegrass, Italian","[6]; Postemergence, 31 g ai/ha",95
same,"Plant response rating, Ryegrass, Italian","[6]; Postemergence, 62 g ai/ha",98
same,"Plant response rating, Goosegrass","[7]; Postemergence, 8 g ai/ha",35
same,"Plant response rating, Goosegrass","[7]; Postemergence, 16 g ai/ha",35
same,"Plant response rating, Goosegrass","[7]; Postemergence, 31 g ai/ha",60
same,"Plant response rating, Goosegrass","[7]; Postemergence, 62 g ai/ha",80
same,"Plant response rating, Groundsel",[8]; 8 g ai/ha,0
same,"Plant response rating, Groundsel",[8]; 16 g ai/ha,0
same,"Plant response rating, Groundsel",[8]; 31 g ai/ha,0
same,"Plant response rating, Groundsel",[8]; 62 g ai/ha,0
same,"Plant response rating, Dallisgrass","[9]; Postemergence, 8 g ai/ha",0
same,"Plant response rating, Dallisgrass","[9]; Postemergence, 16 g ai/ha",20
same,"Plant response rating, Dallisgrass","[9]; Postemergence, 31 g ai/ha",30
same,"Plant response rating, Dallisgrass","[9]; Postemergence, 62 g ai/ha",40
same,"Plant response rating, Guineagrass","[10]; Postemergence, 8 g ai/ha",90
same,"Plant response rating, Guineagrass","[10]; Postemergence, 16 g ai/ha",98
same,"Plant response rating, Guineagrass","[10]; Postemergence, 31 g ai/ha",98
same,"Plant response rating, Guineagrass","[10]; Postemergence, 62 g ai/ha",100
same,"Plant response rating, Purslane","[11]; Postemergence, 8 g ai/ha",0
same,"Plant response rating, Purslane","[11]; Postemergence, 16 g ai/ha",0
same,"Plant response rating, Purslane","[11]; Postemergence, 31 g ai/ha",0
same,"Plant response rating, Purslane","[11]; Postemergence, 62 g ai/ha",0
same,"Plant response rating, Morningglory","[12]; Postemergence, 8 g ai/ha",0
same,"Plant response rating, Morningglory","[12]; Postemergence, 16 g ai/ha",35
same,"Plant response rating, Morningglory","[12]; Postemergence, 31 g ai/ha",35
same,"Plant response rating, Morningglory","[12]; Postemergence, 62 g ai/ha",50
same,"Plant response rating, Mallow",[13]; 8 g ai/ha,0
same,"Plant response rating, Mallow",[13]; 16 g ai/ha,0
same,"Plant response rating, Mallow",[13]; 31 g ai/ha,0
same,"Plant response rating, Mallow",[13]; 62 g ai/ha,0
